Assays:
CYP2D6 = CYP2D6 (Homo sapiens, UniProt P10635); test: CYP450 inhibition in human liver microsomes
CYP2C8 = target: T1, CYP2C8 (Homo sapiens, UniProt P10632); test: CYP450 inhibition in human liver microsomes
T1 sequence (P10632 1-490): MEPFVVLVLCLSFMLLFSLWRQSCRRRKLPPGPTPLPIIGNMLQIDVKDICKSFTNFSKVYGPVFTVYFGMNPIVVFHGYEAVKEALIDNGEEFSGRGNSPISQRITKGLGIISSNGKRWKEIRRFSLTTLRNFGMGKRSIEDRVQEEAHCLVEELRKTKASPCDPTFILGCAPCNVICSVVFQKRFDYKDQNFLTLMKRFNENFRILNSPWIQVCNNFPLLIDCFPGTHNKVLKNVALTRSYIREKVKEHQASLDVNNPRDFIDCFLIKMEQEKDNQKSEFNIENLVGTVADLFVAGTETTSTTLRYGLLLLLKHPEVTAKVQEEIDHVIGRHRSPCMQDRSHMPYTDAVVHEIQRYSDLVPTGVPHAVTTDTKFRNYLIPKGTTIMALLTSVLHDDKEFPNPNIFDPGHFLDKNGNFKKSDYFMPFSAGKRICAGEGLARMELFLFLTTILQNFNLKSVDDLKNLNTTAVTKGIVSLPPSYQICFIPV

melatonin MT = target: T2, melatonin MT (Homo sapiens, UniProt P48039); test: Melatonin MT GTPγS binding assay; type: biochemical; conditions: GTPγS bound relative to 2-iodomelatonin response, CHO-K1 cells; read-out: IC50 against melatonin
T2 construct: expressed in transfected cells; host or cells: CHO-K1
T2 sequence (P48039 whole entry): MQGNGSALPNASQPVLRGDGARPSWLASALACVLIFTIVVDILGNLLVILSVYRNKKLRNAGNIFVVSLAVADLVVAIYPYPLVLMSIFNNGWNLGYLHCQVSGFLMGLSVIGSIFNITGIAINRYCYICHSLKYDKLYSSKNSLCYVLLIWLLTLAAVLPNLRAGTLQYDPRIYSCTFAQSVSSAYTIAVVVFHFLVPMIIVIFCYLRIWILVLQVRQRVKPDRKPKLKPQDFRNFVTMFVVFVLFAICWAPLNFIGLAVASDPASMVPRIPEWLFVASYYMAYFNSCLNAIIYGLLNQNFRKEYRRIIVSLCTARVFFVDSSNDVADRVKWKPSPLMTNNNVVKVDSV
Description: […] CHO-K1 cells Chinese hamster ovary were used in this assay. The final DMSO concentration in the assay was about 0.4%. The assay mixture was incubated at 30° C. for 30 min in an incubation buffer (20 mM HEPES, pH 7.4, 100 mM NaCl, 10 mM MgCl2, 1 mM DTT, and 1 mM EDTA). The assay was quantitated by measuring the amount of [^35S]GTPγS bound relative to 2-iodomelatonin response.

[1] = system: GM-CSFR/JAK2/STAT5 pathway in csTF-1 cells; test: csTF-1 cell-based reporter assay; conditions: Homo sapiens, GM-CSF at 2 ng/mL, beta-lactamase reporter, read-out: EC50, inhibition of GM-CSF stimulated reporter activity
Description: After 16 hr incubation, cells were seeded at 2×10^5 cell/well in 50 μL volume, into Costar, clear bottom, 96-well assay plates. Serial dilutions of compounds were added to the plates with final DMSO concentration at 0.5% and GM-CSF at 2 ng/mL and the plates were then incubated at 30° C. and 5% CO2 for 4 hrs. The plates were brought to room temperature before adding Substrate Mixture according to manufacturer's protocol (Invitrogen, Catalog #K1085). The assay plates containing the substrate mixture were incubated in the dark at room temperature for 2 hrs. Blue and green fluorescence were measured with excitation at 409 nm and emission at 460 nm (for blue) and excitation at 409 nm and emission at 530 nm (for green) using Spectra Max Gemini EM.

CYP2B6 = target: T3, CYP2B6 (Homo sapiens, UniProt P20813); test: CYP450 inhibition in human liver microsomes
T3 sequence (P20813 1-491): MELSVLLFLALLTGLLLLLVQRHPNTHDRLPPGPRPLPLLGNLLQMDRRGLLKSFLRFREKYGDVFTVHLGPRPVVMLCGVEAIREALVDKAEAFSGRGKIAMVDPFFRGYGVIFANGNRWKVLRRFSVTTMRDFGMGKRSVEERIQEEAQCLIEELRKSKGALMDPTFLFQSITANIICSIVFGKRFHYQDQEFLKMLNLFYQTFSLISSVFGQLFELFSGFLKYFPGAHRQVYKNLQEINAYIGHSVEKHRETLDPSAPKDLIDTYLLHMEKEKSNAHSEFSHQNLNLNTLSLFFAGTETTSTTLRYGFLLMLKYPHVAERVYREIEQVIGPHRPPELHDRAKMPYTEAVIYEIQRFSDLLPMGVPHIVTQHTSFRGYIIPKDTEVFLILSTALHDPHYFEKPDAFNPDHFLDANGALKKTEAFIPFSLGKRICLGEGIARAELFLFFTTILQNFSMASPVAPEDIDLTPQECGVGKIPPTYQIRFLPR

phosphodiesterase PDE5 = target: T4, phosphodiesterase PDE5 (Homo sapiens, UniProt O76074); test: Inhibition of phosphodiesterase PDE5; type: biochemical; conditions: human platelets; read-out: IC50 against phosphodiesterase PDE5
T4 construct: from tissue; host or cells: human platelets
Description: Acta 1976, 429, 485-497 and Nicholson et al., Trends Pharmacol. Sci. 1991, 12, 19-27. Human platelets were used in this assay. The final DMSO concentration in the assay was about 1%. The assay was pre-incubated at 25° C. for 15 min and then incubated at 25° C. for 20 min in an incubation buffer (50 mM Tris-HCl, pH 7.5, 5 mM MgCl2). The assay was quantitated by measuring the amount of [^3H]guanosine.

CYP1A2 = target: T5, CYP1A2 (Homo sapiens, UniProt P05177); test: CYP450 inhibition in human liver microsomes
T5 sequence (P05177 1-516): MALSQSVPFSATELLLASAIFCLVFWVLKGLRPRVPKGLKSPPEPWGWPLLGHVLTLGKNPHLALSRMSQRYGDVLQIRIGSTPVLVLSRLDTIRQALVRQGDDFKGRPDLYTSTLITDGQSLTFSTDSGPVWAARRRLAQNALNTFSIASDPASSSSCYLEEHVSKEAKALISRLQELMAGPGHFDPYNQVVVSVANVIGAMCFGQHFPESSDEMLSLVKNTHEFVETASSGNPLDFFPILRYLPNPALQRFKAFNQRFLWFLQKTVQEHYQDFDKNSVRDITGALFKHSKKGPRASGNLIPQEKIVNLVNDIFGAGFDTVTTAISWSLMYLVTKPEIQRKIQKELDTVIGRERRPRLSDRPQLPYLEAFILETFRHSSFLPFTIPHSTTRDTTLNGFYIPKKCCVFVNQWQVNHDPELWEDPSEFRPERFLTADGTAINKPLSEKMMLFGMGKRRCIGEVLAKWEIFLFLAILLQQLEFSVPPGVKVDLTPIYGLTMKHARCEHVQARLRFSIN

[2] = Pharmacokinetic studies in monkeys; conditions: for AUCall / Cl-obs / Cmax: monkeys
Description: (§1) Three male cynomolgus monkeys were fasted overnight and through four hours postdose. Two 100 μL aliquots of each dosing formulation were taken predose. Three monkeys were given a single gavage dose of a test compound at 10 mg/kg, followed by an approximately 10.0 mL tap water flush of the gavage tube. After a 1 week washout period, two of the three monkeys received a single IV bolus dose of a test compound at 1 mg/kg in a peripheral vein followed by approximate 1.0 mL saline flush.

[3] = cynomolgus monkey, in vivo
Description: as §1

in vivo = conditions: male, cynomolgus monkey
Description: as §1

[4] = Racemic administered IV 1 mg/kg, chiral analysis, label = analyte
[5] = Racemic administered PO 10 mg/kg, chiral analysis, label = analyte
[6] = compound administered IV 1 mg/kg, analyte = compound administered
[7] = compound administered PO 10 mg/kg, analyte = compound administered

Chain of CYP2D6 (P10635 whole entry): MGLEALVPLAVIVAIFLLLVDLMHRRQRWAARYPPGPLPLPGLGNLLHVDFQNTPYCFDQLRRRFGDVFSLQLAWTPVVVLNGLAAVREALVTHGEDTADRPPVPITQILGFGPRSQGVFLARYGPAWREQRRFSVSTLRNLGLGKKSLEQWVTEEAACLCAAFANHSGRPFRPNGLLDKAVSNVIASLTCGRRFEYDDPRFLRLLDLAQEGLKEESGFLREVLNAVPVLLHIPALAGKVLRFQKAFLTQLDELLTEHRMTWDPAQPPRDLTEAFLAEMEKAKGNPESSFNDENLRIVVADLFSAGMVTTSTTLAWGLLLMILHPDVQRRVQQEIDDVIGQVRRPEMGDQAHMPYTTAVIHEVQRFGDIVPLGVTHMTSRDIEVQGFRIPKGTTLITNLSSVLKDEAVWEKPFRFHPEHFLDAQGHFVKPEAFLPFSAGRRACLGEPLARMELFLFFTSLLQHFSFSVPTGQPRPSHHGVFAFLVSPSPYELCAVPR

SMILES | IC50 (CYP2D6) [µM] | IC50 (CYP2C8) [µM] | IC50 (melatonin MT) [µM] | EC50 [1] [µM] | IC50 (CYP2B6) [µM] | IC50 (phosphodiesterase PDE5) [µM] | IC50 (CYP1A2) [µM] | bioavailability ([2]; male, cynomolgus monkey, in vivo, 10 mg/kg) [%] | AUCall [2, 4] [µM·h] | Cl-obs [2, 4] [mL/min/kg] | AUCall [2, 5] [µM·h] | Cmax [2, 5] [µM] | AUCall [2, 6] [µM·h] | Cl-obs [2, 6] [mL/min/kg] | AUCall [2, 7] [µM·h] | Cmax [2, 7] [µM] | share of the Cmax and AUC values determined for the racemic compound ([3]; male) | bioavailability (in vivo) [%] | enantiomers present in plasma ([3]; po)
Cc1cc(Nc2nc(C(O)c3ccc(F)cc3)nc3ccccc23)n[nH]1 (racemic) [Racemate] | > 40 | 23.1 | 9.75 | 0.07 | > 40 | 9.34 | < 0.31 | > 100 | 2.19 | 21.27 | 46.20 | 5.76 | 2.19 | 21.27 | 46.20 | 5.76 |  |  | 
Cc1cc(Nc2nc([C@H](O)c3ccc(F)cc3)nc3ccccc23)n[nH]1 [(R)(−)] | > 40 | 26.9 |  | 0.075 | > 40 |  | 1.7 |  |  |  |  |  |  |  |  |  | over 85% | > 100 | 
Cc1cc(Nc2nc([C@@H](O)c3ccc(F)cc3)nc3ccccc23)n[nH]1 [(S)(+)] | > 40 | 22.7 |  | 0.038 | > 40 |  | < 0.31 |  |  |  |  |  |  |  |  |  |  | 89 | both enantiomers were present in plasma in almost equal proportions
